# Non-standard residues stand in square brackets, D forms with d. Residues, ends and D or L forms follow the SMILES beside them. Hyp = O=C(O)[C@@H]1C[C@@H](O)CN1
# Legend:
# [1] = Method for predicting global Tm of collagen peptides from amino acid sequence; details: observed minus predicted, peptides of Table 3
# Protocol: The global thermal stability of homotrimeric triple helical peptides with length of at least 6 tripeptide units and, in most cases, containing 10 tripeptide units was determined as follows.
# For the total number of triplets n in a given peptide, the base Tm^0(n) for (Pro-Hyp-Gly) or (Pro-Pro-Gly)n was calculated from the length dependence (Equation 1), including any effect of blocking groups;
# The melting temperature value was decreased for every triplet in the sequence that was not Gly-Pro-Hyp, subtracting a value of ΔTm^GXY (Table 1). The N-terminal and C-terminal tripeptide units were excluded from the calculation due to the staggering of the chains and the disorder for the peptide ends (Bella et al. (1994) supra; Li, et al. (1993) Biochemistry 32:7377-7387; Kramer, et al. (2001) J. Mol. Biol. 301:1191-1205).
# The resulting value for the peptide melting temperature was adjusted using the ΔTm^int values for interactions between neighboring tripeptides (Table 2).
# The method was formulated as follows.
# To extrapolate the dependence of the Tm of the host peptides on peptide length, the experimental values for (Pro-Hyp-Gly)n and (Pro-Pro-Gly)n versus n, where n is the number of tripeptide units, were fit to the exponential decay function
# [formula] where Tm^0(n) is defined as the base thermal stability of the repeating polytripeptide standard, Tm^max is the maximum melting temperature, and the constant n0 represents the length of the repeating peptide with Tm=0.
# [2] = peptide of Table 3, defined standard conditions
# Protocol: The propensity measurements for all 20 amino acid residues in the Xaa1 position in a Gly-Xaa1-Hyp context and all 20 amino acid residues in the Xaa2 position in a Gly-Pro-Xaa2 context were determined by measuring thermal stability of host-guest peptides (Persikov, et al. (2000) supra).
# The Tm values of all host-guest peptides were measured under a set of standard conditions, with c=1 mg/ml in phosphate-buffered saline, pH 7.0, and with a heating rate average of 0.1° C./minute (Persikov, et al. (2004) supra).
Compound,ΔTm [1],Tm^obs [2]
"CC(=O)NCC(=O)N1CCC[C@H]1C(=O)N1C[C@H](O)C[C@H]1C(=O)NCC(=O)N1CCC[C@H]1C(=O)N1C[C@H](O)C[C@H]1C(=O)NCC(=O)N[C@@H](CCCNC(=N)N)C(=O)N[C@@H](CCC(N)=O)C(=O)NCC(=O)N[C@@H](CCCCN)C(=O)N[C@@H](CCCNC(=N)N)C(=O)NCC(=O)N[C@@H](CCCCN)C(=O)N1C[C@H](O)C[C@H]1C(=O)NCC(=O)N1CCC[C@H]1C(=O)N1C[C@H](O)C[C@H]1C(=O)NCC(=O)N1CCC[C@H]1C(=O)N1C[C@H](O)C[C@H]1C(=O)NCC(=O)N1CCC[C@H]1C(=O)N1C[C@H](O)C[C@H]1C(=O)NCC(=O)NCC(N)=O [AchE-HG-Alt, Ac-GPO-GPO-GRQ-GKR-GKO-GPO-GPO-GPO-GG-NH2] (Ac-GP[Hyp]GP[Hyp]GRQGKRGK[Hyp]GP[Hyp]GP[Hyp]GP[Hyp]GG-NH2)",−0.5 °C,20.1 °C
"CC(=O)NCC(=O)N1CCC[C@H]1C(=O)N1C[C@H](O)C[C@H]1C(=O)NCC(=O)N1CCC[C@H]1C(=O)N1C[C@H](O)C[C@H]1C(=O)NCC(=O)N1CCC[C@H]1C(=O)N1C[C@H](O)C[C@H]1C(=O)NCC(=O)N[C@@H](C)C(=O)N[C@@H](CCCCN)C(=O)NCC(=O)N[C@@H](CC(=O)O)C(=O)N[C@@H](C)C(=O)NCC(=O)N1CCC[C@H]1C(=O)N1C[C@H](O)C[C@H]1C(=O)NCC(=O)N1CCC[C@H]1C(=O)N[C@@H](C)C(=O)NCC(=O)N1CCC[C@H]1C(=O)N1C[C@H](O)C[C@H]1C(=O)NCC(=O)N1CCC[C@H]1C(=O)N1C[C@H](O)C[C@H]1C(=O)NCC(=O)N1CCC[C@H]1C(=O)N1C[C@H](O)C[C@H]1C(=O)NCC(=O)N[C@@H](Cc1ccc(O)cc1)C(N)=O [T1-655, Ac-(GPO)3-GAK-GDA-GPO-GPA-(GPO)3-GY-NH2] (Ac-GP[Hyp]GP[Hyp]GP[Hyp]GAKGDAGP[Hyp]GPAGP[Hyp]GP[Hyp]GP[Hyp]GY-NH2)",0.1 °C,42.8 °C
"CC[C@H](C)[C@H](NC(=O)CNC(=O)[C@@H]1C[C@@H](O)CN1C(=O)[C@@H]1CCCN1C(=O)CNC(C)=O)C(=O)N[C@@H](CCCNC(=N)N)C(=O)NCC(=O)N1CCC[C@H]1C(=O)N[C@@H](CCCCN)C(=O)NCC(=O)N[C@@H](CCC(N)=O)C(=O)N[C@@H](CCCCN)C(=O)NCC(=O)N[C@@H](CCC(=O)O)C(=O)N1C[C@H](O)C[C@H]1C(=O)NCC(=O)N[C@@H](CC(C)C)C(=O)N1C[C@H](O)C[C@H]1C(=O)NCC(=O)N1CCC[C@H]1C(=O)N1C[C@H](O)C[C@H]1C(=O)NCC(=O)N1CCC[C@H]1C(=O)N1C[C@H](O)C[C@H]1C(=O)NCC(=O)N1CCC[C@H]1C(=O)N1C[C@H](O)C[C@H]1C(=O)NCC(=O)N1CCC[C@H]1C(=O)N1C[C@H](O)C[C@H]1C(=O)NCC(=O)N[C@@H](Cc1ccc(O)cc1)C(N)=O [C1qC-67, Ac-GPO-GIR-GPK-GQK-GEO-GLO-(GPO)4-GY-NH2] (Ac-GP[Hyp]GIRGPKGQKGE[Hyp]GL[Hyp]GP[Hyp]GP[Hyp]GP[Hyp]GP[Hyp]GY-NH2)",−1.4 °C,28.4 °C
"CC(=O)NCC(=O)N1CCC[C@H]1C(=O)N[C@@H](C)C(=O)NCC(=O)N1CCC[C@H]1C(=O)N[C@@H](C)C(=O)NCC(=O)N1CCC[C@H]1C(=O)N[C@H](C(=O)NCC(=O)N1CCC[C@H]1C(=O)N[C@@H](C)C(=O)NCC(=O)N[C@@H](C)C(=O)N[C@@H](CCCNC(=N)N)C(=O)NCC(=O)N1CCC[C@H]1C(=O)N[C@@H](C)C(=O)NCC(=O)N1CCC[C@H]1C(=O)N1C[C@H](O)C[C@H]1C(=O)NCC(=O)N1CCC[C@H]1C(=O)N[C@@H](C)C(=O)NCC(=O)N1CCC[C@H]1C(=O)N1C[C@H](O)C[C@H]1C(=O)NCC(=O)N1CCC[C@H]1C(=O)N1C[C@H](O)C[C@H]1C(=O)NCC(=O)N[C@H](C(N)=O)C(C)C)C(C)C [T1-892 (O24A), Ac-(GPA)2-GPV-GPA-GAR-GPA-GPO-GPA-(GPO)2-GV-NH2] (Ac-GPAGPAGPVGPAGARGPAGP[Hyp]GPAGP[Hyp]GP[Hyp]GV-NH2)",1.4 °C,23.2 °C
"CC(=O)NCC(=O)N1CCC[C@H]1C(=O)N1C[C@H](O)C[C@H]1C(=O)NCC(=O)N1CCC[C@H]1C(=O)N1C[C@H](O)C[C@H]1C(=O)NCC(=O)N[C@@H](CCCNC(=N)N)C(=O)N1C[C@H](O)C[C@H]1C(=O)NCC(=O)N[C@@H](CCCCN)C(=O)N[C@@H](CCCNC(=N)N)C(=O)NCC(=O)N[C@@H](CCCCN)C(=O)N1C[C@H](O)C[C@H]1C(=O)NCC(=O)N1CCC[C@H]1C(=O)N1C[C@H](O)C[C@H]1C(=O)NCC(=O)N1CCC[C@H]1C(=O)N1C[C@H](O)C[C@H]1C(=O)NCC(=O)N1CCC[C@H]1C(=O)N1C[C@H](O)C[C@H]1C(=O)NCC(=O)NCC(N)=O [AchE-HG-C2, Ac-GPO-GPO-GRO-GKR-GKO-GPO-GPO-GPO-GG-NH2] (Ac-GP[Hyp]GP[Hyp]GR[Hyp]GKRGK[Hyp]GP[Hyp]GP[Hyp]GP[Hyp]GG-NH2)",0.3 °C,26.9 °C
"CC[C@H](C)[C@H](NC(=O)CNC(C)=O)C(=O)N[C@@H](CC(N)=O)C(=O)NCC(=O)N[C@@H](Cc1ccccc1)C(=O)N1C[C@H](O)C[C@H]1C(=O)NCC(=O)N[C@@H](CCCCN)C(=O)N[C@@H](CC(=O)O)C(=O)NCC(=O)N[C@@H](CCCNC(=N)N)C(=O)N[C@@H](CC(=O)O)C(=O)NCC(=O)N[C@H](C(=O)N[C@@H](CCCCN)C(=O)NCC(=O)N[C@@H](CCC(=O)O)C(=O)N[C@@H](CCCCN)C(=O)NCC(=O)N[C@@H](CCC(=O)O)C(=O)N1C[C@H](O)C[C@H]1C(=O)NCC(=O)N1CCC[C@H]1C(=O)N1C[C@H](O)C[C@H]1C(=O)NCC(=O)N1CCC[C@H]1C(=O)N1C[C@H](O)C[C@H]1C(=O)NCC(=O)N1CCC[C@H]1C(=O)N1C[C@H](O)C[C@H]1C(=O)NCC(=O)N1CCC[C@H]1C(=O)N1C[C@H](O)C[C@H]1C(=O)NCC(=O)NCC(N)=O)[C@@H](C)O [MBL 42-61, Ac-GIN-GFO-GKD-GRD-GTK-GEK-GEO-(GPO)4-GG-NH2] (Ac-GINGF[Hyp]GKDGRDGTKGEKGE[Hyp]GP[Hyp]GP[Hyp]GP[Hyp]GP[Hyp]GG-NH2)",−2.2 °C,23.0 °C
GPS-GPR-GLO-GPO-GAO-GPQ-GFQ-GPO-(GEO)2-GAS-GPM [α1CB2],3.4 °C,12 °C

# Results, then the compound that gave them:
ΔTm [1],Tm^obs [2],Compound
1.5 °C,24.1 °C,"CC(=O)NCC(=O)N1CCC[C@H]1C(=O)N[C@@H](C)C(=O)NCC(=O)N1CCC[C@H]1C(=O)N[C@@H](C)C(=O)NCC(=O)N1CCC[C@H]1C(=O)N[C@H](C(=O)NCC(=O)N1CCC[C@H]1C(=O)N[C@@H](C)C(=O)NCC(=O)N[C@@H](C)C(=O)N[C@@H](CCCNC(=N)N)C(=O)NCC(=O)N1CCC[C@H]1C(=O)N[C@@H](C)C(=O)NCC(=O)N1CCC[C@H]1C(=O)N1C[C@H](O)C[C@H]1C(=O)NCC(=O)N1CCC[C@H]1C(=O)N1C[C@H](O)C[C@H]1C(=O)NCC(=O)N[C@@H](C)C(=O)N1C[C@H](O)C[C@H]1C(=O)NCC(=O)N1CCC[C@H]1C(=O)N1C[C@H](O)C[C@H]1C(=O)NCC(=O)N[C@H](C(N)=O)C(C)C)C(C)C [T1-892 (P26A), Ac-(GPA)2-GPV-GPA-GAR-GPA-(GPO)2-GAO-GPO-GV-NH2] (Ac-GPAGPAGPVGPAGARGPAGP[Hyp]GP[Hyp]GA[Hyp]GP[Hyp]GV-NH2)"
2.1 °C,25.4 °C,"CC[C@H](C)[C@H](NC(=O)CNC(=O)[C@@H]1C[C@@H](O)CN1C(=O)[C@H](CCCCN)NC(=O)CNC(=O)[C@@H]1C[C@@H](O)CN1C(=O)[C@H](CCC(=O)O)NC(=O)CNC(=O)[C@H](C)NC(=O)[C@H](CC(C)C)NC(=O)CNC(C)=O)C(=O)N1C[C@H](O)C[C@H]1C(=O)NCC(=O)N[C@@H](CC(C)C)C(=O)N1C[C@H](O)C[C@H]1C(=O)NCC(=O)N[C@@H](CCCNC(=N)N)C(=O)N[C@@H](C)C(=O)NCC(=O)N1CCC[C@H]1C(=O)N1C[C@H](O)C[C@H]1C(=O)NCC(=O)N1CCC[C@H]1C(=O)N1C[C@H](O)C[C@H]1C(=O)NCC(=O)N1CCC[C@H]1C(=O)N1C[C@H](O)C[C@H]1C(=O)NCC(=O)N1CCC[C@H]1C(=O)N1C[C@H](O)C[C@H]1C(=O)NCC(=O)N[C@H](C(N)=O)C(C)C [T7-2031, Ac-GLA-GEO-GKO-GIO-GLO-GRA-(GPO)4-GV-NH2] (Ac-GLAGE[Hyp]GK[Hyp]GI[Hyp]GL[Hyp]GRAGP[Hyp]GP[Hyp]GP[Hyp]GP[Hyp]GV-NH2)"
−3.2 °C,20.6 °C,"CC(C)[C@H](NC(=O)[C@@H]1CCCN1C(=O)CNC(=O)[C@H](C)NC(=O)[C@@H]1CCCN1C(=O)CNC(=O)[C@H](C)NC(=O)[C@@H]1CCCN1C(=O)CN)C(=O)NCC(=O)N1CCC[C@H]1C(=O)N[C@@H](C)C(=O)NCC(=O)N[C@@H](C)C(=O)N[C@@H](CCCNC(=N)N)C(=O)NCC(=O)N1CCC[C@H]1C(=O)N[C@@H](C)C(=O)NCC(=O)N1CCC[C@H]1C(=O)N1C[C@H](O)C[C@H]1C(=O)NCC(=O)N1CCC[C@H]1C(=O)N1C[C@H](O)C[C@H]1C(=O)NCC(=O)N1CCC[C@H]1C(=O)N1C[C@H](O)C[C@H]1C(=O)NCC(=O)N1CCC[C@H]1C(=O)N1C[C@H](O)C[C@H]1C(=O)NCC(=O)N[C@@H](Cc1ccc(O)cc1)C(=O)O [T1-892 unbl, GPA-GPA-GPV-GPA-GAR-GPA-(GPO)4-GY] (H-GPAGPAGPVGPAGARGPAGP[Hyp]GP[Hyp]GP[Hyp]GP[Hyp]GY-OH)"

# From patent publication US8280710B2, “Method for determining thermal stability of collagen or collagen-like peptide” (University of Medicine and Dentistry of New Jersey, priority 2005, dated 2012)
